Reference: publication PMC10620772, “Design, synthesis, and biological evaluation of new pyrimidine-5-carbonitrile derivatives as novel anti-cancer, dual EGFR^WT/COX-2 inhibitors with docking studies” (RSC Advances, 2023)

Assays:
Assay type in all cases: cell-based, human
[1] = test system: CCRF-CEM; assay: NCI60 antitumor screening; settings: 10 μM one-dose
[2] = test system: MOLT-4; assay: NCI60 antitumor screening; settings: 10 μM one-dose
[3] = test system: LOX IMVI; assay: NCI60 antitumor screening; settings: 10 μM one-dose
[4] = test system: UO-31; assay: NCI60 antitumor screening; settings: 10 μM one-dose
[5] = test system: RXF 393; assay: NCI60 antitumor screening; settings: 10 μM one-dose
[6] = test system: RPMI-8226; assay: NCI60 antitumor screening; settings: 10 μM one-dose
[7] = test system: PC-3; assay: NCI60 antitumor screening; settings: 10 μM one-dose
[8] = test system: MALME-3M; assay: NCI60 antitumor screening; settings: 10 μM one-dose
[9] = test system: SK-MEL-5; assay: NCI60 antitumor screening; settings: 10 μM one-dose
[10] = test system: 786–0; assay: NCI60 antitumor screening; settings: 10 μM one-dose
[11] = test system: UACC-62; assay: NCI60 antitumor screening; settings: 10 μM one-dose
[12] = test system: OVCAR-4; assay: NCI60 antitumor screening; settings: 10 μM one-dose
[13] = test system: ACHN; assay: NCI60 antitumor screening; settings: 10 μM one-dose
[14] = test system: SK-MEL-28; assay: NCI60 antitumor screening; settings: 10 μM one-dose
[15] = test system: SK-OV-3; assay: NCI60 antitumor screening; settings: 10 μM one-dose
[16] = test system: MDA-MB-231/ATCC; assay: NCI60 antitumor screening; settings: 10 μM one-dose
[17] = test system: UACC-257; assay: NCI60 antitumor screening; settings: 10 μM one-dose
[18] = test system: SF-268; assay: NCI60 antitumor screening; settings: 10 μM one-dose
[19] = test system: NCI-H460; assay: NCI60 antitumor screening; settings: 10 μM one-dose
[20] = test system: NCI60 cell lines panel; assay: NCI60 antitumor screening, full panel; settings: 10 μM one-dose, mean over NCI60
Protocol: The National Cancer Institute (NCI), Bethesda, Maryland, United States, selected all of the novel synthesized compounds (2b–d, 3a–d and 4a–p) for in vitro antitumor screening at a single concentration of 10 μM toward the NCI60 cell lines panel covering leukaemia, non-small cell lungs, colon, central nervous system (CNS), melanoma, ovarian, renal, prostate, and breast cancer cells.[32–35] The data were reported as a mean graph of the percent growth of the treated cell lines and expressed as percentage growth inhibition (GI%) in Table 1 and ESI 1.
(2) The molar concentration of the compound responsible for total growth inhibition, also known as total growth inhibition (TGI).
Regarding subpanel selectivity toward certain cancer type, the method of determining a compound's selectivity index is to divide the full panel MG-MID (μM) value by each single subpanel. Values above six indicate high selectivity against the subpanel; moderate selectivity is denoted by values between three and six. Conversely, compounds are termed nonselective if their selectivity is less than three.[30,37]

[21] = test system: SF-295; assay: NCI60 antitumor screening; settings: 10 μM one-dose
[22] = test system: SF-539; assay: NCI60 antitumor screening; settings: 10 μM one-dose
[23] = test system: SN12C; assay: NCI60 antitumor screening; settings: 10 μM one-dose
[24] = test system: CAKI-1; assay: NCI60 antitumor screening; settings: 10 μM one-dose
[25] = test system: A549/ATCC; assay: NCI60 antitumor screening; settings: 10 μM one-dose
[26] = test system: HL-60(TB); assay: NCI60 antitumor screening; settings: 10 μM one-dose
[27] = test system: HCT-15; assay: NCI60 antitumor screening; settings: 10 μM one-dose
[28] = test system: SNB-19; assay: NCI60 antitumor screening; settings: 10 μM one-dose
[29] = test system: OVCAR-8; assay: NCI60 antitumor screening; settings: 10 μM one-dose
[30] = test system: MDA-MB-468; assay: NCI60 antitumor screening; settings: 10 μM one-dose
[31] = test system: MCF7; assay: NCI60 antitumor screening; settings: 10 μM one-dose
[32] = test system: NCI-H522; assay: NCI60 antitumor screening; settings: 10 μM one-dose
[33] = test system: SW-620; assay: NCI60 antitumor screening; settings: 10 μM one-dose
[34] = test system: HCT-116; assay: NCI60 antitumor screening; settings: 10 μM one-dose
[35] = test system: HT29; assay: NCI60 antitumor screening; settings: 10 μM one-dose
[36] = test system: NCI/ADR-RES; assay: NCI60 antitumor screening; settings: 10 μM one-dose
[37] = test system: EKVX; assay: NCI60 antitumor screening; settings: 10 μM one-dose
[38] = test system: HOP-62; assay: NCI60 antitumor screening; settings: 10 μM one-dose
[39] = test system: KM12; assay: NCI60 antitumor screening; settings: 10 μM one-dose
[40] = test system: TK-10; assay: NCI60 antitumor screening; settings: 10 μM one-dose
[41] = test system: NCI-H23; assay: NCI60 antitumor screening; settings: 10 μM one-dose
[42] = test system: OVCAR-3; assay: NCI60 antitumor screening; settings: 10 μM one-dose
[43] = test system: BT-549; assay: NCI60 antitumor screening; settings: 10 μM one-dose
[44] = test system: SK-MEL-2; assay: NCI60 antitumor screening; settings: 10 μM one-dose
[45] = test system: OVCAR-5; assay: NCI60 antitumor screening; settings: 10 μM one-dose
[46] = test system: MDA-MB-435; assay: NCI60 antitumor screening; settings: 10 μM one-dose
[47] = test system: IGROV1; assay: NCI60 antitumor screening; settings: 10 μM one-dose
[48] = test system: U251; assay: NCI60 antitumor screening; settings: 10 μM one-dose
[49] = test system: M14; assay: NCI60 antitumor screening; settings: 10 μM one-dose
[50] = test system: K-562; assay: NCI60 antitumor screening; settings: 10 μM one-dose
[51] = test system: COLO 205; assay: NCI60 antitumor screening; settings: 10 μM one-dose
[52] = test system: NCI-H322M; assay: NCI60 antitumor screening; settings: 10 μM one-dose
[53] = test system: T-47D; assay: NCI60 antitumor screening; settings: 10 μM one-dose
[54] = test system: A498; assay: NCI60 antitumor screening; settings: 10 μM one-dose
[55] = test system: HS 578T; assay: NCI60 antitumor screening; settings: 10 μM one-dose
[56] = test system: SNB-75; assay: NCI60 antitumor screening; settings: 10 μM one-dose
[57] = test system: SR; assay: NCI60 antitumor screening; settings: 10 μM one-dose
[58] = test system: HCC-2998; assay: NCI60 antitumor screening; settings: 10 μM one-dose
[59] = test system: NCI-H226; assay: NCI60 antitumor screening; settings: 10 μM one-dose
[60] = test system: HOP-92; assay: NCI60 antitumor screening; settings: 10 μM one-dose
[61] = test system: DU-145; assay: NCI60 antitumor screening; settings: 10 μM one-dose

N#Cc1c(Cl)nc(SCc2ccc([N+](=O)[O-])cc2)nc1-c1ccc(F)cc1 [3c, 4-Chloro-6-(4-fluorophenyl)-2-((4-nitrobenzyl)thio) pyrimidine-5-carbonitrile]
GI% [1]: 32.30% | GI% [2]: 38.07% | GI% [3]: 14.22% | GI% [4]: 32.10% | GI% [5]: 29.76% | GI% [6]: 41.51% | GI% [7]: 57.37% | GI% [8]: — (GI% < 10) | GI% [9]: 22.36% | GI% [10]: 21.29% | GI% [11]: 22.80% | GI% [12]: 18.42% | GI% [13]: 14.60% | GI% [14]: — (GI% < 10) | GI% [15]: 11.73% | GI% [16]: — (GI% < 10) | GI% [17]: 24.66% | GI% [18]: 18.20% | GI% [19]: 13.48% | Mean GI% [20]: 23.91% | GI% [21]: 29.81% | GI% [22]: 28.21% | GI% [23]: 29.81% | GI% [24]: 32.89% | GI% [25]: 33.50% | GI% [26]: 57.98% | GI% [27]: 45.64% | GI% [28]: 10.67% | GI% [29]: 16.16% | GI% [30]: 19.68% | GI% [31]: 27.06% | GI% [32]: 37.48% | GI% [33]: 37.21% | GI% [34]: 40.70% | GI% [35]: 61.63% | GI% [36]: 27.59% | GI% [37]: 20.38% | GI% [38]: — (GI% < 10) | GI% [39]: 27.77% | GI% [40]: — (GI% < 10) | GI% [41]: 12.20% | GI% [42]: 13.71% | GI% [43]: 43.62% | GI% [44]: — (GI% < 10) | GI% [45]: — (GI% < 10) | GI% [46]: — (GI% < 10) | GI% [47]: — (GI% < 10) | GI% [48]: 31.17% | GI% [49]: 12.41% | GI% [50]: 44.30% | GI% [51]: 22.66% | GI% [52]: 13.28% | GI% [53]: 68.67% | GI% [54]: — (GI% < 10) | GI% [55]: 13.31% | GI% [56]: — (GI% < 10) | GI% [57]: — (GI% < 10) | GI% [58]: 12.17% | GI% [59]: 46.54% | GI% [60]: 45.40% | GI% [61]: 24.93%

N#Cc1c(-c2ccc(F)cc2)nc(SCc2ccc(F)cc2)[nH]c1=O [2b, 2-((4-Fluorobenzyl)thio)-4-(4-fluorophenyl)-6-oxo-1,6-dihydropyrimidine-5-carbonitrile]
GI% [1]: — (GI% < 10) | GI% [2]: — (GI% < 10) | GI% [3]: 10.55% | GI% [4]: 26.71% | GI% [5]: 28.91% | GI% ([5]; Table 1): — (GI value > 70%) | GI% [6]: — (GI% < 10) | GI% [7]: — (GI% < 10) | GI% [8]: — (GI% < 10) | GI% [9]: — (GI% < 10) | GI% ([10]; Table 1): 84.82% | GI% [11]: 11.33% | GI% ([12]; Table 1): 73.14% | GI% [13]: 26.83% | GI% [14]: — (GI% < 10) | GI% [15]: 26.25% | GI% [16]: 39.26% | GI% [17]: — (GI% < 10) | GI% [18]: 24.67% | GI% [19]: 13.27% | Mean GI% [20]: 16.01% | GI% [21]: 25.73% | GI% [22]: 45.33% | GI% ([22]; Table 1): — (GI value > 70%) | GI% [23]: 17.08% | GI% [24]: 24.10% | GI% [25]: 15.77% | GI% [26]: 20.88% | GI% [27]: — (GI% < 10) | GI% [28]: 18.35% | GI% [29]: 48.04% | GI% [30]: 14.26% | GI% [31]: — (GI% < 10) | GI% [32]: 25.94% | GI% [33]: — (GI% < 10) | GI% [34]: 33.39% | GI% [35]: — (GI% < 10) | GI% [36]: 37.17% | GI% [37]: — (GI% < 10) | GI% [38]: 16.84% | GI% ([38]; Table 1): — (GI value > 70%) | GI% [39]: — (GI% < 10) | GI% [40]: 17.90% | GI% [41]: 12.73% | GI% [42]: — (GI% < 10) | GI% [43]: — (GI% < 10) | GI% [44]: — (GI% < 10) | GI% [45]: — (GI% < 10) | GI% [46]: — (GI% < 10) | GI% [47]: — (GI% < 10) | GI% [48]: 33.40% | GI% [49]: — (GI% < 10) | GI% [50]: — (GI% < 10) | GI% ([50]; Table 1): — ^b (GI value > 70%) | GI% [51]: — (GI% < 10) | GI% [53]: 25.99% | GI% [54]: — (GI% < 10) | GI% [55]: 24.34% | GI% ([55]; Table 1): — (GI value > 70%) | GI% [56]: 23.60% | GI% ([56]; Table 1): — (GI value > 70%) | GI% ([57]; Table 1): — (GI value > 70%) | GI% [58]: — (GI% < 10) | GI% [59]: 24.21% | GI% ([59]; Table 1): — (GI value > 70%) | GI% [60]: 19.25% | GI% [61]: — (GI% < 10)
